Data on 30 compounds can be found in patent US6784201B2, “Benzothiepines having activity as inhibitors of ileal bile acid transport and taurocholate uptake” (G.D. Searle & Company, priority 1994, dated 2004).

Counter-ions that a name gives are not always drawn. Like-named read-outs stand apart in the source and are kept apart here.

For assay [1], the target named is T1, human IBAT (Homo sapiens, UniProt Q12908).
T1 construct: expressed in transfected cells; host or cells: Baby hamster kidney (BHK) cells, clone H14
T1 sequence (Q12908 1-348): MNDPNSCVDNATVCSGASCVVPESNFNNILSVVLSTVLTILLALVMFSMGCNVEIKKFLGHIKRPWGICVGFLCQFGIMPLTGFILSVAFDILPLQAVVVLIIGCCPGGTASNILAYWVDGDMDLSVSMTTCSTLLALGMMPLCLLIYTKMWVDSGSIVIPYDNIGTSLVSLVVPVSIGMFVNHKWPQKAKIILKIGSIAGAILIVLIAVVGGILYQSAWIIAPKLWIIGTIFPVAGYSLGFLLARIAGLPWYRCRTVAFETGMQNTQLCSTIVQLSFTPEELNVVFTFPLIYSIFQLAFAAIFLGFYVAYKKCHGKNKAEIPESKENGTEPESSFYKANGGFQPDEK
In words: In vitro assay of IBAT-mediated uptake of [14C]-taurocholate (TC) in H14 cells. The conditions noted are these: for IC50: read-out: Human TC IC50; for In vitro % Inhibition of TC Uptake: 50 μM. Type of assay: cell-based. In a few lines: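 BHK cells stably expressing human IBAT (H14) were incubated 2 h at 37° C with compound and 3 μM final [14C]-taurocholate in DMEM (4.5 g/L glucose) plus 0.2% fatty acid-free BSA. After cold PBS washes, cell-associated radioactivity was measured by scintillation counting.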

The test system of assay [2] is fecal bile acid (FBA). In words: Rat gavage assay (fecal bile acid increase). Type of assay: in vivo. The method, then: Male Wister rats (275-300 g) are administered IBAT inhibitors using an oral gavage procedure. Drug or vehicle (0.2% Tween 80 in water) is administered once a day (9:00-10:0 a.m.) for 4 days at varying dosages in a final volume of 2 mL per kilogram of body weight. Total fecal samples are collected during the final 48 hours of the treatment period and analyzed for bile acid content using an enzymatic assay as described below. Compound efficacy is determined by comparison of the increase in fecal bile acid (FBA) concentration in treated rats to the mean FBA concentration of rats in the vehicle group.
Measurement of Fecal Bile Acid Concentration (FBA)
Total fecal output from individually housed hamsters was collected for 24 or 48 hours, dried under a stream of nitrogen, pulverized and weighed. Approximately 0.1 gram was weighed out and extracted into an organic solvent (butanol/water). Following separation and drying, the residue was dissolved in methanol and the amount of bile acid present was measured enzymatically using the 3α-hydroxysteroid steroid dehydrogenase reaction with bile acids to reduce NAD. (Reference: Mashige, F., et al. (1981) Clin. Chem. 27, 1352).

Where [3] appears, read: In Vitro Taurocholate Uptake, Table 10.

What is called IC50 is the concentration needed to halve the response being measured. Turning to `CCCCC1(CCCC)CS(=O)(=O)c2ccc(N(C)C)cc2[C@@H](c2ccc(OCc3ccc(CN(CC(=O)O)CC(=O)O)cc3)cc2)[C@H]1O` (relative stereo) [Example 1427], the IC50 in assay [1] (setting [3]) was determined as 2 nM. Further, the “Delta (micromoles fecal bile acid per day)” value in assay [2] (dose 2 mg/kg/day) was 36.7 micromoles fecal bile acid per day; in assay [2] (dose .016 mg/kg/day), 13.8 micromoles fecal bile acid per day; in assay [2] (dose .08 mg/kg/day), 27.3 micromoles fecal bile acid per day; in assay [2] (dose .4 mg/kg/day), 35.8 micromoles fecal bile acid per day. As to `CCCCC1(CCCC)CS(=O)(=O)c2ccc(N(C)C)cc2C(c2cccc(OCCOCCOCC[n+]3ccccc3)c2)C1O` (centres unmarked) [Example 1355], the IC50 in assay [1] came out at 1.5 nM. Regarding `CCCCC1(CCCC)CS(=O)(=O)c2ccc(N(C)C)cc2C(c2ccc[n+](C)c2)C1O` (centres unmarked) [Example 1356], the IC50 in assay [1] stood at 220 nM.

Consider `CCCCC1(CCCC)CS(=O)(=O)c2ccc(N(C)C)cc2C(c2cccc(OCCOCCOCC[P+](CC)(CC)CC)c2)C1O` (centres unmarked) [Example 1358], for which the IC50 in assay [1] was 8 nM.

In the case of `CCCCC1(CCCC)CS(=O)(=O)c2ccc(N(C)C)cc2C(c2cccc(OCCOCCOCC[n+]3ccn(Cc4ccccc4)c3)c2)C1O` (centres unmarked) [Example 1359], the IC50 in assay [1] was determined as 14 nM. On to `CCCCC1(CCCC)CS(=O)(=O)c2ccc(N(C)C)cc2C(c2cccc(OCCOCCOCC[n+]3nnn4c3CCCCC4)c2)C1O` (centres unmarked) [Example 1360], for which the IC50 in assay [1] came out at 3 nM. The same measure, in the same setting: as for `CCCCC1(CCCC)CS(=O)(=O)c2ccc(N(C)C)cc2C(c2cccc(OCCOCCOCC[n+]3cccn3-c3ccccc3)c2)C1O` (centres unmarked) [Example 1361], the figure is 4 nM; as for `CCCCC1(CCCC)CS(=O)(=O)c2ccc(N(C)C)cc2C(c2cccc(OCCOCCOCC[N+](CC)(CC)CCC(=O)O)c2)C1O` (centres unmarked) [Example 1362], 19 nM. In the case of `CCCCC1(CCCC)CS(=O)(=O)c2ccc(N(C)C)cc2C(c2cccc(OCCOCCOCC[N+](CC)(CC)CCNS(=O)(=O)N(C)C)c2)C1O` (centres unmarked) [Example 1363], the IC50 in assay [1] amounted to 8 nM. Still for that read-out and setting: as for `CCCCC1(CCCC)CS(=O)(=O)c2ccc(N(C)C)cc2C(c2cccc(OCCOCCOCC[N+](CC)(CC)CCNC(N)=O)c2)C1O` (centres unmarked) [Example 1364], the figure is 6 nM; as for `CCCCC1(CCCC)CS(=O)(=O)c2ccc(N(C)C)cc2C(c2cccc(OCCOCCOCC[N+](CC)(CC)CCNS(=O)(=O)c3ccccc3)c2)C1O` (centres unmarked) [Example 1365], 8 nM; as for `CCCCC1(CCCC)CS(=O)(=O)c2ccc(N(C)C)cc2C(c2ccc(OCCCC[n+]3ccc(C(=O)OC)cc3)c(F)c2)C1O` (centres unmarked) [Example 1366], 15 nM.

Turning to `CCCCC1(CCCC)CS(=O)(=O)c2ccc(N(C)C)cc2C(c2cccc(OCCOCCOCC[n+]3ccn(CC)c3)c2)C1O` (centres unmarked) [Example 1367], in assay [1], the IC50 stood at 2 nM. Still for that read-out and setting: the same measure for `CCCCC1(CCCC)CS(=O)(=O)c2ccc(N(C)C)cc2C(c2cccc(OCCOCCOCC[n+]3c(C)cc(C)cc3C)c2)C1O` (centres unmarked) [Example 1368]: 5 nM. With `CCCCC1(CCCC)CS(=O)(=O)c2ccc(N(C)C)cc2C(c2cccc(OCCOCCOCC[n+]3ccccc3-c3ccccc3)c2)C1O` (centres unmarked) [Example 1369], the IC50 in assay [1] was found to be 5 nM. The same measure, in the same setting: the same measure for `CCCCC1(CCCC)CS(=O)(=O)c2ccc(N(C)C)cc2C(c2cccc(OCCOCCOCC[N+](C)(C)C3CC(C)(C)N(C)C(C)(C)C3)c2)C1O` (centres unmarked) [Example 1370]: 2 nM.

As to `CCCCC1(CCCC)CS(=O)(=O)c2ccc(N(C)C)cc2C(c2cccc(OCCOCCOCC[N+](CC)(CC)CC#N)c2)C1O` (centres unmarked) [Example 1371], the IC50 in assay [1] amounted to 4 nM. Turning to `CCCCC1(CCCC)CS(=O)(=O)c2ccc(N(C)C)cc2C(c2cccc(OCCOCCOCC[N+](CC)(CC)CCNC(=O)N(C)C)c2)C1O` (centres unmarked) [Example 1372], in assay [1], the IC50 worked out at 4 nM.

As for `CCCCC1(CCCC)CS(=O)(=O)c2ccc(N(C)C)cc2C(c2cccc(OCCOCCOCC[N+](CC)(CC)CCNP(C)(=O)c3ccccc3)c2)C1O` (centres unmarked) [Example 1373], in assay [1], the IC50 amounted to 8 nM.

Consider `CCCCC1(CCCC)CS(=O)(=O)c2ccc(N(C)C)cc2C(c2cccc(OCCOCCOCC[N+](CC)(CC)CCNC(=O)c3ccccc3)c2)C1O` (centres unmarked) [Example 1374], for which the IC50 in assay [1] was found to be 7 nM. Same read-out and setting: the same measure for `C=C(C)C(=O)OCC[N+](CC)(CC)CCOCCOCCOc1cccc(C2c3cc(N(C)C)ccc3S(=O)(=O)CC(CCCC)(CCCC)C2O)c1` (centres unmarked) [Example 1375]: 2 nM. Consider `CCCCC1(CCCC)CS(=O)(=O)c2ccc(N(C)C)cc2[C@@H](c2ccc(OCC(=O)NCC(=O)O)cc2)[C@H]1O` [Example 1403], for which, in assay [1] (setting [3]), the IC50 amounted to 23 nM. In addition, the “Delta (micromoles fecal bile acid per day)” value is listed as 41.6 micromoles fecal bile acid per day in assay [2] (dose 2 mg/kg/day), 3 micromoles fecal bile acid per day in assay [2] (dose .016 mg/kg/day), 11.9 micromoles fecal bile acid per day in assay [2] (dose .08 mg/kg/day) and 35.2 micromoles fecal bile acid per day in assay [2] (dose .4 mg/kg/day). Consider `CCCCC1(CCCC)CS(=O)(=O)c2ccc(N(C)C)cc2[C@@H](c2ccc(OCCC[N+]34CCN(CC3)CC4)cc2)[C@H]1O` [Example 1407, (4R-cis)-1-[3-[4-[3,3-Dibutyl-7-(dimethylamino)-2,3,4,5-tetrahydro-4-hydroxy-1,1-dioxido-1-benzothiepin-5-yl]phenoxy]propyl]-4-aza-1-azoniabicyclo[2.2.2]octane, 4-methylbenzenesulfonate (Salt)], for which, in assay [1] (setting [3]), the IC50 turned out to be 3 nM. The same measure, in the same setting: the same measure for `CCCCC1(CCCC)CS(=O)(=O)c2ccc(N(C)C)cc2[C@@H](c2ccc(OCCCC[N+]34CCN(CC3)CC4)cc2)[C@H]1O` [Example 1408, (4R-cis)-1-[4-[4-[3,3-Dibutyl-7-(dimethylamino)-2,3,4,5-tetrahydro-4-hydroxy-1,1-dioxido-1-benzothiepin-5-yl]phenoxy]butyl]-4-aza-1-azoniabicyclo [2.2.2]octanemethanesulfonate (Salt)]: 1 nM; for `CCCCC1(CCCC)CS(=O)(=O)c2ccc(N(C)C)cc2[C@@H](c2ccc(OCCCC[N+]34CCN(CC3)CC4)cc2)[C@H]1O` [Example 1409, (4R-cis)-1-[4-[4-[3,3-Dibutyl-7-(dimethylamino)-2,3,4,5-tetrahydro-4-hydroxy-1,1-dioxido-1-benzothiepin-5-yl]phenoxy]butyl]-4-aza-1-azoniabicyclo[2.2.2]octane-4-methylbenzenesulfonate (Salt)]: 0.9 nM. Same read-out and setting: as for `CCCCC1(CCCC)CS(=O)(=O)c2ccc(N(C)C)cc2[C@@H](c2ccc(OCCCCC[n+]3cccc4ccccc43)cc2)[C@H]1O` [Example 1412, (4R-cis)-1-[5-[4-[3,3-Dibutyl-7-(dimethylamino)-2,3,4,5-tetrahydro-4-hydroxy-1,1-dioxido-1-benzothiepin-5-yl]phenoxy]pentyl]quinolinium, methanesulfonate (Salt)], the figure is 3 nM; as for `CCCCC1(CCCC)CS(=O)(=O)c2ccc(N(C)C)cc2[C@@H](c2ccc(OCc3cc[n+](C)cc3)cc2)[C@H]1O` [Example 1428, (4R-cis)-4-[[4-[3,3-Dibutyl-7-(dimethylamino)-2,3,4,5-tetrahydro-4-hydroxy-1,1-dioxido-1,1-dioxido-1-benzothiepin-5-yl]phenoxy]methyl]-1-methylpyridinium salt with trifluoroacetic acid (1:1)], 0.7 nM. On to `CCCCC1(CCCC)CS(=O)(=O)c2ccc(N(C)C)cc2[C@@H](c2ccc(OCc3cccc(CN(CC(=O)O)CC(=O)O)n3)cc2)[C@H]1O` [Example 1431, (4R-cis)-N-(Carboxymethyl)-N-[[6-[[4-[3,3-dibutyl-7-(dimethylamino)-2,3,4,5-tetrahydro-4-hydroxy-1,1-dioxido-1-benzothiepin-5-yl]phenoxy]methyl]-2-pyridinyl]methyl]glycine], for which, in assay [1] (setting [3]), the IC50 was 5 nM. Take “cis-4-Hydroxy-5-phenyl-2,3,4,5-tetrahydro spiro(benzothiepine-3,1′-cyclohexane)-1,1-dioxide [Example 60]”: in assay [1], the “In vitro % Inhibition of TC Uptake” value was found to be 41%.

Turning to “trans-4-Hydroxy-5-phenyl-2,3,4,5-tetrahydro spiro(benzothiepine-3,1′-cyclohexane)-1,1-dioxide [Example 59]”, in assay [1], the “In vitro % Inhibition of TC Uptake” value came to 96%.
